What was measured:
Enterococcus faecium = assay: Antimicrobial susceptibility by disk diffusion (EUCAST); format: cell-based
Experimental: (§1) The antimicrobial susceptibility of the four ESKAPE bacteria Acinetobacter baumannii, Enterococcus faecium, P. aeruginosa, and S. aureus, made available by the culture collection of IZSM, was evaluated by the disk diffusion method. Antimicrobials used were different and specific per each bacterium under study. […] Thereby, the diameter of the inhibition zones was measured, and bacteria were classified as resistant or sensitive per antibiotic tested in agreement with the European Committee for Antimicrobial Susceptibility Testing (EUCAST, 2025) breakpoints.

[1] = tested on: Staphylococcus aureus (MRSA); assay: as above; format: cell-based
Experimental: as §1

CC1(C)S[C@@H]2[C@H](NC(=O)[C@H](N)c3ccccc3)C(=O)N2[C@H]1C(=O)O [Ampicillin]
Susceptibility of the strain, in words (Enterococcus faecium): resistant

CO[C@@]1(NC(=O)Cc2cccs2)C(=O)N2C(C(=O)O)=C(COC(N)=O)CS[C@@H]21 [Cefoxitin]
Susceptibility of the strain, in words [1]: important resistance was detected

O=C(O)c1cn(C2CC2)c2cc(N3CCNCC3)c(F)cc2c1=O [Ciprofloxacin]
Susceptibility of the strain, in words (Enterococcus faecium): resistant | Susceptibility of the strain, in words [1]: important resistance was detected

CC[C@H]1OC(=O)[C@H](C)[C@@H](O[C@H]2C[C@@](C)(OC)[C@@H](O)[C@H](C)O2)[C@H](C)[C@@H](O[C@@H]2O[C@H](C)C[C@H](N(C)C)[C@H]2O)[C@](C)(O)C[C@@H](C)C(=O)[C@H](C)[C@@H](O)[C@]1(C)O [Erythromycin]
Susceptibility of the strain, in words [1]: important resistance was detected

C[C@H]1COc2c(N3CCN(C)CC3)c(F)cc3c(=O)c(C(=O)O)cn1c23 [Levofloxacin]
Susceptibility of the strain, in words (Enterococcus faecium): resistant | Susceptibility of the strain, in words [1]: important resistance was detected

CN[C@H](CC(C)C)C(=O)N[C@H]1C(=O)N[C@@H](CC(N)=O)C(=O)N[C@H]2C(=O)N[C@H]3C(=O)N[C@H](C(=O)N[C@H](C(=O)O)c4cc(O)cc(O)c4-c4cc3ccc4O)[C@H](O)c3ccc(c(Cl)c3)Oc3cc2cc(c3O[C@@H]2O[C@H](CO)[C@@H](O)[C@H](O)[C@H]2O[C@H]2C[C@](C)(N)[C@H](O)[C@H](C)O2)Oc2ccc(cc2Cl)[C@H]1O [Vancomycin]
Susceptibility of the strain, in words (Enterococcus faecium): resistant

— publication PMC12292521, “Discovery of a Potent Antimicrobial Peptide Through Rational Design: A New Frontier in Pathogen Control” (Biomolecules, 2025)
